{"source": "patent US8110565B2", "about": "“Enhanced drug delivery in transdermal systems” (Noven Pharmaceuticals, Inc., priority 2001, dated 2012)", "key": {"[1]": {"assay": "Amount of ramipril solubilized in the carrier formulation without forming crystals", "format": "physicochemical", "description": "(§1) Prodrug effects on flux were also studied using an ace inhibitor drug, ramipril. Flux rates of two corresponding prodrugs—ramipril methyl ester and ramipril ethyl ester—were compared prior to combining with the parent drug. […] In either event, the use of an ester prodrug in place of the parent drug can achieve, at the very least, over a 10 fold increase in flux (see ramipril flux (▴) in FIG. 8—only 15% ramipril could be solubilized without forming crystals—versus ramipril ethyl ester flux without enhancers (Δ) in FIG. 9). Use of non-functional or hydroxy functional adhesives are also preferred."}, "[2]": {"assay": "Flux of ramipril, its ester prodrugs and their combinations from carrier formulations (FIGS. 8, 9)", "format": "in vitro ADME", "description": "as §1, with “preferred. However, when both ramipril and a corresponding prodrug are combined in the formulations containing enhancers, an even higher flux can be obtained.” for “preferred.”"}}, "data": [{"smiles": "CCOC(=O)[C@H](CCc1ccccc1)N[C@@H](C)C(=O)N1[C@H](C(=O)O)C[C@@H]2CCC[C@@H]21", "note": "[ramipril]", "values": [{"measurement": "ramipril that could be solubilized without forming crystals", "setting": "[1]", "value": 15, "unit": "%"}]}, {"smiles": "CCOC(=O)[C@H](CCc1ccccc1)N[C@@H](C)C(=O)N1[C@H](C(=O)OC)C[C@@H]2CCC[C@@H]21", "note": "[ramipril methyl ester]", "values": [{"measurement": "flux compared with the ethyl ester derivative", "setting": "[2]", "value": "fluxed higher"}, {"measurement": "flux higher than the ethyl ester prodrug", "setting": "[2]; without permeation enhancers, 20% drug, 20% polyacrylate adhesive, 60% polysiloxane adhesive, FIG. 9", "value": 73, "unit": "%"}]}, {"smiles": "CCOC(=O)C(CCc1ccccc1)NC(C)C(=O)N1C(C(=O)OCC)CC2CCCC21", "note": "(stereo not shown) [ramipril ethyl ester]", "values": [{"measurement": "increase in flux over the parent drug ramipril", "setting": "[2]; ester without enhancers (FIG. 9) versus 15% ramipril (FIG. 8)", "value": "> 10", "unit": "fold"}]}]}
